The subject of experiment [1] is Laodelphax striatellus. Put plainly: Insecticidal Test on Laodelphax striatellus. As to conditions: 192 h, rice plant seedlings dipped for 30 seconds, 3rd-instar larvae, 8 days after the inoculation, read-out: insecticidal efficacy (corrected mortality rate). It counts as in vivo. The source says:
Insecticidal Test on Laodelphax striatellus
The condensed heterocyclic compounds represented by the general formula (1) of the present invention or salts thereof were separately dispersed in water and diluted to 500 ppm. Rice plant seedlings (variety: Nihonbare) were dipped in the agrochemical dispersions for 30 seconds. After air-dried, each seedling was put into a separate glass test tube and inoculated with ten 3rd-instar larvae of Laodelphax striatellus, and then the glass test tubes were capped with cotton plugs. At 8 days after the inoculation, the numbers of surviving larvae and dead larvae were counted, the corrected mortality rate was calculated according to the formula shown below, and the insecticidal efficacy was evaluated according to the criteria shown below. Corrected mortality rate(%)=100×(Survival rate in a non-treatment plot−Survival rate in a treatment plot)/Survival rate in a non-treatment plot [Math. 2] Corrected Mortality Rate A: the corrected mortality rate is 100%. B: the corrected mortality rate is 90 to 99%. C: the corrected mortality rate is 80 to 89%. D: the corrected mortality rate is 50 to 79%.

The subject of experiment [2] is Plutella xylostella. Nature of the experiment: Insecticidal Test on Plutella xylostella. In kind it is in vivo. The note with it: 144 h, Chinese cabbage seedlings with laid eggs dipped for about 30 seconds, 25° C., 6 days after the dip treatment, read-out: insecticidal efficacy (corrected mortality rate). From the text: Insecticidal Test on Plutella xylostella
Adults of Plutella xylostella were released onto Chinese cabbage seedlings and allowed to lay eggs thereon. At 2 days after the release of the adults, the Chinese cabbage seedlings with laid eggs were dipped for about 30 seconds in agrochemical dispersions diluted to 500 ppm, each of which contained a different condensed heterocyclic compound represented by the general formula (1) of the present invention as an active ingredient. After air-dried, the seedlings were kept in a thermostatic chamber at 25° C. At 6 days after the dip treatment, the number of hatched larvae per plot was counted, the mortality rate was calculated according to the formula shown below, and the insecticidal efficacy was evaluated according to the criteria of Test Example 2. This test was conducted in triplicate using 10 adults of Plutella xylostella per plot. Corrected mortality rate(%)=100×(Number of hatched larvae in a non-treatment plot−Number of hatched larvae in a treatment plot)/Number of hatched larvae in a non-treatment plot [Math. 3]

Regarding `CCS(=O)(=O)c1cc(-c2cccc(C(F)(F)F)c2)cnc1-c1nc2cc(C(F)(F)F)cn(C)c-2c1Cl` [Compound 1-13, 2-(5-(3-trifluoromethylphenyl)-3-ethylsulfonyl-pyridin-2-yl)-3-chloro-4-methyl-6-trifluoromethyl-4H-pyrrolo[3,2-b]pyridine], the mortality at 500 ppm in experiment [1] and in experiment [2] was 100% throughout.
Turning to `CCn1cc(C(F)(F)F)cc2nc(-c3ncc(-c4cccc(C(F)(F)F)c4)cc3S(=O)(=O)CC)c(F)c1-2` [Compound 1-16, 2-(5-(3-trifluoromethylphenyl)-3-ethylsulfonyl-pyridin-2-yl)-3-fluoro-4-ethyl-6-trifluoromethyl-4H-pyrrolo[3,2-b]pyridine], the mortality at 500 ppm in experiment [1] and in experiment [2] was 100% each time.
`CCn1cc(C(F)(F)F)cc2nc(-c3nc4cc(Br)ccc4cc3S(=O)(=O)CC)c(Cl)c1-2` [Compound 2-52, 2-(7-bromo-3-ethylsulfonyl-quinolin-2-yl)-3-chloro-4-ethyl-6-trifluoromethyl-4H-pyrrolo[3,2-b]pyridine]: the mortality at 500 ppm in experiment [1] and in experiment [2] was 100% each time.
As to `CCn1cc(C(F)(F)F)cc2nc(-c3nc4cc(Br)ccc4cc3S(=O)(=O)CC)c(F)c1-2` [Compound 2-76, 2-(7-bromo-3-ethylsulfonyl-quinolin-2-yl)-3-fluoro-4-ethyl-6-trifluoromethyl-4H-pyrrolo[3,2-b]pyridine], the mortality at 500 ppm in experiment [1] and in experiment [2] was 100% throughout.
For `CCS(=O)(=O)c1c(-c2nc3cc(C(F)(F)F)cn(C)c-3c2F)nc2cc(C(F)(F)F)ccn12` [Compound 3-14, 2-(3-ethylsulfonyl-7-(trifluoromethyl)imidazo[1,2-a]pyridin-2-yl)-3-fluoro-4-methyl-6-(trifluoromethyl)-4H-pyrrolo[3,2-b]pyridine], the mortality at 500 ppm in experiment [1] and in experiment [2] was 100% throughout.

The record behind these values is patent publication US11083198B2, “4H-pyrrolopyridine compound or salt thereof, agricultural and horticultural insecticide comprising the compound or the salt, and method for using the insecticide” (Nihon Nohyaku Co., Ltd., priority 2016, dated 2021).
